Data from patent US20110306597A1, “Nicotinamide Derivatives” (priority 2008, published 2011).
Where a name gives a salt, the structure may show the parent alone.

biological target: human recombinant H-PGDS (Homo sapiens, UniProt O60760); assay: Slightly modified h-PGDS TBA enzyme assay (Examples 529, 565, 566, 574-588 and 591); type: biochemical; details: slightly modified assay (Examples 529, 565, 566, 574-588 and 591); 1:40,000 human recombinant H-PGDS
Experimental: Prostaglandin D Synthase (PGDS) converts the substrate prostaglandin H2 (PGH2) to prostaglandin D2. The depletion of PGH2 was measured via an Fe(II) reduction of the remaining PGH2 to malondialdehyde (MDA) and 12-HHT. The enzyme assay is based on the quantitative formation of a fluorescent complex from the non-fluorescent compounds MDA and 2-thiobarbituric acid (TBA), substantially as described in U.S. patent application publication US-2004/152148 by Lombardt.
Examples 529, 565, 566, 574-588 and 591 were tested in a slightly modified assay: The enzyme assay (30 μls during biological process) contained 100 mM Trizma pH 8.0, 100 μM MgCl2, 0.1 mg/ml IgG Rabbit serum, 5.0 μM PGH2 (Cayman; ethanol solution, #17020), 2.5 mM L-Glutathione (Sigma; reduced form #G4251), 1:40,000 human recombinant H-PGDS (from 1 mg/ml), 0.5% DMSO and inhibitor (varying concentration). 3 μls of diluted inhibitor (dissolved in DMSO) was plated into a 384-well assay plate followed by a 24 μl addition of an enzyme solution containing h-PGDS, Trizma, MgCl2, IgG and L-Glutathione. After pre-incubation of inhibitor and enzyme solution for 10 minutes at room temperature, the reaction was initiated with a 3 μl addition of substrate solution in 10 mM HCl. The reaction was terminated after 40 second by the addition of 3 μl stop buffer containing FeCl2 and citric acid. After addition of 45 μls of TBA plates were heated for one hour in a 70° C. oven. Plates were cooled at room temperature overnight and read on a plate reader the next day with excitation @ 530 nm and emission @ 560 nm. IC50's of inhibitors were calculated with a 4-parameter fit using 11 inhibitor concentrations in duplicate with ½ log serial dilutions. Controls on each plate included no inhibitor (zero % effect) and an inhibitor 500-fold in excess of its' IC50 (100% effect). The highest inhibitor concentration tested was typically 10 μM.

human recombinant H-PGDS, sequence (O60760 whole entry): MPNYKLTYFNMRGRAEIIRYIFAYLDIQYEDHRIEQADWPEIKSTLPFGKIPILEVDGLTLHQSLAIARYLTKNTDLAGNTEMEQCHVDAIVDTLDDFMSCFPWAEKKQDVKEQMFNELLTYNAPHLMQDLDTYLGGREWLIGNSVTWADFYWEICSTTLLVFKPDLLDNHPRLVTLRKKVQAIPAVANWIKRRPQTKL

Row | SMILES | IC50
1 | CNCCNC(=O)c1ccc(-c2cccc(F)c2)nc1 [Example 578, 6-(3-Fluorophenyl)-N-(2-(methylamino)ethyl)nicotinamide hydrochloride] | 758 nM
2 | O=C(NCC1CC1)c1ccc(-c2cccc(F)c2)nc1 [Example 579, N-(Cyclopropylmethyl)-6-(3-fluorophenyl)nicotinamide] | 128 nM
3 | CCNC(=O)c1ccc(-c2cccc(F)c2)nc1 [Example 580, N-Ethyl-6-(3-fluorophenyl)nicotinamide] | 222 nM
4 | O=C(O)CCNC(=O)c1ccc(-c2cccc(F)c2)nc1 [Example 581, N-{[6-(3-Fluorophenyl)pyridin-3-yl]carbonyl}-beta-alanine] | 197 nM
5 | O=C(CCNC(=O)c1ccc(-c2cccc(F)c2)nc1)N[C@H]1CC[C@H](O)CC1 [Example 582, 6-(3-Fuorophenyl)-N-{3-[(trans-4-hydroxycyclohexyl)amino]-3-oxopropyl}nicotinamide] | 34.2 nM
6 | CC(C)OCCNCCNC(=O)c1ccc(-c2cccc(F)c2)nc1 [Example 583, 6-(3-Fluorophenyl)-N-(2-(2-isopropoxyethylamino)ethyl)nicotinamide] | 277 nM
7 | O=C(N[C@H]1C[C@H]2CC[C@@H](C1)N2)c1ccc(-c2cccc(F)c2)nc1 [Example 584, N-[(3-endo)-8-azabicyclo[3.2.1]oct-3-yl]-6-(3-fluorophenyl)nicotinamide] | 196 nM
8 | CCCN1[C@@H]2CC[C@H]1C[C@@H](NC(=O)c1ccc(-c3cccc(F)c3)nc1)C2 [Example 585, 6-(3-Fluorophenyl)-N-[(3-endo)-8-propyl-8-azabicyclo[3.2.1]oct-3-yl]nicotinamide] | 176 nM
9 | CC(C)(C)OC(=O)N1[C@@H]2CC[C@H]1C[C@@H](NC(=O)c1ccc(-c3cccc(F)c3)nc1)C2 [Example 586, tert-Butyl (3-endo)-3-({[6-(3-fluorophenyl)pyridin-3-yl]carbonyl}amino)-8-azabicyclo[3.2.1]octane-8-carboxylate] | 8.78 nM
10 | O=C(N[C@@H]1C[C@H]2CC[C@@H](C1)N2)c1ccc(-c2cccc(F)c2)nc1 [Example 587, N-[(3-exo)-8-azabicyclo[3.2.1]oct-3-yl]-6-(3-fluorophenyl)nicotinamide] | 39.2 nM
11 | CC(C)(C)OC(=O)N1[C@@H]2CC[C@H]1C[C@H](NC(=O)c1ccc(-c3cccc(F)c3)nc1)C2 [Example 588, tert-Butyl (3-exo)-3-({[6-(3-fluorophenyl)pyridin-3-yl]carbonyl}amino)-8-azabicyclo[3.2.1]octane-8-carboxylate] | 15.4 nM
12 | CC(C)S(=O)(=O)N1[C@@H]2CC[C@H]1C[C@H](NC(=O)c1ccc(-c3cccc(F)c3)nc1)C2 [Example 591, 6-(3-Fluorophenyl)-N-[(3-exo)-8-(isopropylsulfonyl)-8-azabicyclo[3.2.1]oct-3-yl]nicotinamide] | 3.76 nM
